Measurements taken from patent publication US20240350522A1, “HYGROMYCIN A FOR TREATMENT OF DISEASES AND INFECTIONS” (FLIGHTPATH BIOSCIENCES, INC., priority 2021, published 2024).
Where “and” joins values, the source holds several entries; their conditions need not be identical. Equal entries are not always repeated. Where two headings read alike, the source gives them in different places.

Assays:
Assay type in all cases: cell-based
F. nucleatum nucleatum = experiment: Kirby-Bauer diffusion assay; conditions: Fusobacterium nucleatum, mean (SEM), read-out: size of zone inhibition (mm); for zone of inhibition at 40 µg/disc: Hyg A 40 μg per disc; for zone of inhibition at 5 µg/disc: Hyg A 5 μg per disc; for zone of inhibition at 10 µg/disc: Hyg A 10 μg per disc; for zone of inhibition at 20 µg/disc: Hyg A 20 μg per disc
Description: (§1) Three representatives of 6 subspecies of Fusobacterium nucleatum (F. nucleatum) for a total of 18 strains were tested in the experiment. The sub species and strains are described in Table 2.
(§2) All strains were verified by 16S V3/V6 sequence analysis prior to use. The methods described herein were performed in an anaerobic chamber at 37° C. All media and plates were degassed prior to use.
(§3) Hygromycin A (Hyg A) discs were prepared by solubilizing Hyg A in distilled water and sterile filtered. Clindamycin was used as a positive control. Defined amounts of hygromycin A (40, 20, 10 or 5 micrograms), clindamycin (2 micrograms) or sterile distilled water were absorbed onto Kirby-Bauer discs in a biosafety cabinet.
(§4) An overnight culture was grown in Wilkins-Chalgren (WC) broth and back-diluted 1:10 in fresh broth. When an OD 600 reading reached 0.5, 300 μL of the log phase culture was plated onto WC agar plates. The plates were sectioned into quadrants and a Kirby-Bauer (KB) disc impregnated with a defined amount of hygromycin A was placed in each quadrant. Plates were prepared thus in triplicate and the four amounts of hygromycin A were 40, 20 10 and 5 micrograms. The same volume of culture was spread on fourth plate sectioned into six sections for three positive and three negative controls. KB discs with water served as negative controls and KB discs impregnated with 2 micrograms of clindamycin served as positive controls. […] Table 3, Table 4, Table 5, Table 6, Table 7, Table 8 show the mean size of zone inhibitions for each of the subspecies tested using increasing concentrations of hygromycin A where the standard error of mean is represented in parenthesis.
(§5) The amount of hygromycin A was plotted against the size of the zone of inhibition for each strain tested.

[1] = system: F. nucleatum periodonticum; experiment: Kirby-Bauer diffusion assay; conditions: Fusobacterium nucleatum, mean (SEM), read-out: size of zone inhibition (mm); for zone of inhibition at 5 µg/disc: Hyg A 5 μg per disc; for zone of inhibition at 10 µg/disc: Hyg A 10 μg per disc; for zone of inhibition at 20 µg/disc: Hyg A 20 μg per disc; for zone of inhibition at 40 µg/disc: Hyg A 40 μg per disc
Description: as §1, §2, §3, §4, §5

F. nucleatum polymorphum = experiment: Kirby-Bauer diffusion assay; conditions: Fusobacterium nucleatum, mean (SEM), read-out: size of zone inhibition (mm); for zone of inhibition at 5 µg/disc: Hyg A 5 μg per disc; for zone of inhibition at 10 µg/disc: Hyg A 10 μg per disc; for zone of inhibition at 20 µg/disc: Hyg A 20 μg per disc; for zone of inhibition at 40 µg/disc: Hyg A 40 μg per disc
Description: as §1, §2, §3, §4, §5

[2] = system: Treponema pallidum pallidum Chicago strain; experiment: T. pallidum susceptibility assay, co-culture with Sf1Ep cells, tp0574 (T47) qPCR after 7 days; conditions: for Mean T47 copies/μL, Avg. / Mean T47 copies/μL, experimental values: 7 days; for Mean T47 copies/μL, Avg.: average of 8 replicates; for Mean T47 copies/μL, experimental values: replicate wells
[3] = strain 25586 (second column so headed)
[4] = strain 25586, 42 mm = assigned maximum

In the case of `CC(=O)[C@H]1O[C@@H](Oc2ccc(/C=C(\C)C(=O)N[C@@H]3[C@H](O)[C@@H](O)[C@H]4OCO[C@H]4[C@@H]3O)cc2O)[C@@H](O)[C@@H]1O` [Hyg A, Hygromycin A], the zone of inhibition at 40 µg/disc (F. nucleatum nucleatum; strain 203L34, 42 mm = assigned maximum) is reported as 42 mm, the zone of inhibition at 5 µg/disc (F. nucleatum nucleatum; strain 25586 (first column)) is reported as 16 mm and the zone of inhibition at 10 µg/disc (F. nucleatum nucleatum; strain 25586 (first column)) is reported as 20 mm. For the same compound, the zone of inhibition at 5 µg/disc (F. nucleatum nucleatum; [3]) was 25.7 mm, the zone of inhibition at 10 µg/disc (F. nucleatum nucleatum; [3]) was 30 mm and the zone of inhibition at 20 µg/disc (F. nucleatum nucleatum; [4]) was 42 mm. For the same compound, the zone of inhibition at 20 µg/disc (F. nucleatum nucleatum; strain 25586) was 26 mm, the zone of inhibition at 40 µg/disc (F. nucleatum nucleatum; [4]) was 42 mm and the zone of inhibition at 40 µg/disc (F. nucleatum nucleatum; strain 25586) was 30 mm. It also gave a zone of inhibition at 5 µg/disc ([1]; strain 2_1_31 EAV015) of 20.3 mm, a zone of inhibition at 10 µg/disc ([1]; strain 2_1_31 EAV015) of 23.3 mm and a zone of inhibition at 20 µg/disc ([1]; strain 2_1_31 EAV015) of 25.3 mm. It also gave a zone of inhibition at 40 µg/disc ([1]; strain 2_1_31 EAV015) of 30 mm, a zone of inhibition at 5 µg/disc ([1]; strain 3_1_7B) of 29.3 mm and a zone of inhibition at 10 µg/disc ([1]; strain 3_1_7B) of 34.3 mm. The zone of inhibition at 20 µg/disc ([1]; strain 3_1_7B) was 36 mm, the zone of inhibition at 40 µg/disc ([1]; strain 3_1_7B) was 40 mm and the zone of inhibition at 5 µg/disc ([1]; strain 209B32) was 22 mm. For the same compound, the zone of inhibition at 10 µg/disc ([1]; strain 209B32) was 25.7 mm, the zone of inhibition at 20 µg/disc ([1]; strain 209B32) was 30.7 mm and the zone of inhibition at 40 µg/disc ([1]; strain 209B32) was 35 mm. It also gave a zone of inhibition at 5 µg/disc (F. nucleatum polymorphum; strain 13_3C EAV005) of 16.7 mm, a zone of inhibition at 10 µg/disc (F. nucleatum polymorphum; strain 13_3C EAV005) of 20 mm and a zone of inhibition at 20 µg/disc (F. nucleatum polymorphum; strain 13_3C EAV005) of 25.7 mm. For the same compound, the zone of inhibition at 40 µg/disc (F. nucleatum polymorphum; strain 13_3C EAV005) was 27.3 mm, the zone of inhibition at 5 µg/disc (F. nucleatum polymorphum; strain 203L28) was 20.3 mm and the zone of inhibition at 10 µg/disc (F. nucleatum polymorphum; strain 203L28) was 23 mm. For the same compound, the zone of inhibition at 20 µg/disc (F. nucleatum polymorphum; strain 203L28) was 24 mm, the zone of inhibition at 40 µg/disc (F. nucleatum polymorphum; strain 203L28) was 30.3 mm and the zone of inhibition at 5 µg/disc (F. nucleatum polymorphum; strain 203L29) was 18.3 mm. For the same compound, the zone of inhibition at 10 µg/disc (F. nucleatum polymorphum; strain 203L29) was 20.3 mm, the zone of inhibition at 20 µg/disc (F. nucleatum polymorphum; strain 203L29) was 24 mm and the zone of inhibition at 40 µg/disc (F. nucleatum polymorphum; strain 203L29) was 26.7 mm. The “lowest concentration effective against growth (no significant difference to higher concentrations)” value ([2]; Chicago strain, ANOVA p<0.05) was 0.12 µg/mL, the “Mean T47 copies/μL, Avg.” value ([2]; Hyg A 0.03 μg/ml) was 7184 copies/μL and the “Mean T47 copies/μL, experimental values” ([2]; Hyg A 0.03 μg/ml) was 2531 copies/μL and 7304 copies/μL and 8369 copies/μL and 7552 copies/μL and 6189 copies/μL and 9263 copies/μL and 8429 copies/μL and 7834 copies/μL. For the same compound, the “Mean T47 copies/μL, Avg.” value ([2]; Hyg A 0.06 μg/ml) was 1814 copies/μL, the “Mean T47 copies/μL, experimental values” ([2]; Hyg A 0.06 μg/ml) was 1336 copies/μL and 1882 copies/μL and 1716 copies/μL and 2225 copies/μL and 1815 copies/μL and 2044 copies/μL and 2022 copies/μL and 1476 copies/μL and the “Mean T47 copies/μL, Avg.” value ([2]; Hyg A 0.12 μg/ml) was 674 copies/μL. For the same compound, the “Mean T47 copies/μL, experimental values” ([2]; Hyg A 0.12 μg/ml) was 449 copies/μL and 775 copies/μL and 689 copies/μL and 776 copies/μL and 788 copies/μL and 670 copies/μL and 704 copies/μL and 545 copies/μL, the “Mean T47 copies/μL, Avg.” value ([2]; Hyg A 0.24 μg/ml) was 576 copies/μL and the “Mean T47 copies/μL, experimental values” ([2]; Hyg A 0.24 μg/ml) was 360 copies/μL and 447 copies/μL and 513 copies/μL and 890 copies/μL and 775 copies/μL and 636 copies/μL and 565 copies/μL and 424 copies/μL. The “Mean T47 copies/μL, Avg.” value ([2]; Hyg A 0.48 μg/ml) was 457 copies/μL, the “Mean T47 copies/μL, experimental values” ([2]; Hyg A 0.48 μg/ml) was 341 copies/μL and 475 copies/μL and 462 copies/μL and 614 copies/μL and 548 copies/μL and 509 copies/μL and 425 copies/μL and 280 copies/μL and the “Mean T47 copies/μL, Avg.” value ([2]; Hyg A 0.96 μg/ml) was 397 copies/μL. For the same compound, the “Mean T47 copies/μL, experimental values” ([2]; Hyg A 0.96 μg/ml) was 271 copies/μL and 393 copies/μL and 520 copies/μL and 528 copies/μL and 402 copies/μL and 418 copies/μL and 372 copies/μL and 273 copies/μL, the “Mean T47 copies/μL, Avg.” value ([2]; Hyg A 1.92 μg/ml) was 451 copies/μL and the “Mean T47 copies/μL, experimental values” ([2]; Hyg A 1.92 μg/ml) was 301 copies/μL and 422 copies/μL and 453 copies/μL and 556 copies/μL and 585 copies/μL and 546 copies/μL and 464 copies/μL and 279 copies/μL. For the same compound, the “Mean T47 copies/μL, Avg.” value ([2]; Hyg A 3.84 μg/ml) was 493 copies/μL and the “Mean T47 copies/μL, experimental values” ([2]; Hyg A 3.84 μg/ml) was 324 copies/μL and 470 copies/μL and 612 copies/μL and 487 copies/μL and 485 copies/μL and 532 copies/μL and 618 copies/μL and 412 copies/μL.
